The subject of one experiment is C. reinhardtii CC-1928. The experiment is described as follows: Effect of copper on activity of hydrazones: in vitro growth inhibition of C. reinhardtii in TAP Cu minus / TAP Cu plus medium (Example 10). Format: cell-based, Chlamydomonas reinhardtii. Conditions: for inhibition of growth at 1 µg/mL: Chlamydomonas reinhardtii, TAP Cu minus medium, read-out: % Inhn. Minus Copper Observed; for inhibition of growth at 1 µg/mL / % Inhn. Plus Copper Observed: test compound 1 μg/mL, 48 h; for % Inhn. Plus Copper Observed: TAP Cu plus medium (CuCl2); for % Inhn. by copper chloride alone: CuCl2, 10 μM, TAP Cu plus vs TAP Cu minus without test compound, across experiments. In a few lines: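 Washed cells (suspension 2×10^5 spores per mL) added to compound at 1 μg/mL in Chelex-treated TAP Cu minus or TAP Cu plus (20 μM CuCl2). After 48 h at 27 °C, growth read by light scattering; % inhibition vs compound-free wells, plus-Cu predicted values by Colby formula from minus-Cu data.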

In another experiment the test system is C. reinhardtii. Briefly: Growth inhibition of C. reinhardtii by hydrazones and isolated metal-hydrazone complexes, TAP Cu minus medium (Example 12). Format: cell-based, Chlamydomonas reinhardtii. The settings on record: for Complex % Inhn.: isolated metal complex 1 μg/mL; for inhibition of growth at 1 µg/mL: Chlamydomonas reinhardtii, parent hydrazone 1 μg/mL, read-out: Hydrazone % Inhn. How it is done: In vitro toxicity assays against C. reinhardtii CC-1928 (wild type mt+137c green in dark subclone) obtained from the Chlamydomonas Resource Center at Duke University were conducted using TAP liquid growth medium described by Gorman and Levine Proc. Natl. Acad. Sci. USA 1965, 54, 1665-1669 except that CuSO4.5H2O, normally included as a component of Hutner's trace element stock solution (Hutner et al. Proc. Am. Philos. Soc. 1950, 94, 152-170), was omitted. The TAP medium lacking Cu (TAP Cu minus) was prepared by adding 400 mg NH4Cl, 10 mL of 100× Tris-Acetate (242 g Tris-base and 100 mL glacial acetic acid in 1000 mL milli Q water), and 8.3 mL of 120.5× phosphate buffer (14.34 g K2HPO4 and 7.26 g KH2PO4 in 1000 mL milli Q water) to milli Q water to make a total volume of 1 liter. The medium was treated with 0.5 g Chelex 100 resin (Bio-Rad Analytical grade, 50-100 mesh, sodium form, cat#142-2822) by stirring at room temperature for 1 hour. 900 mL were decanted and 45.9 mg of CaCl2.2H2O, 90 mg of MgSO4.7H2O and 0.9 mL Hutner's trace elements lacking CuSO4.5H2O were added and the solution was filter-sterilized. Medium containing copper (TAP Cu plus) was prepared by adding CuCl2.2H2O to the TAP Cu minus medium at 20 μM. Test compounds were dissolved in dimethylsulfoxide (DMSO) at 2 mg/mL then dilutions in TAP Cu minus and TAP Cu plus media were prepared in sterilized microcentrifuge tubes at 2 μg/mL. 100 μL aliquots of diluted compound were dispensed into flat-bottomed 96-well microtiter plates. C. reinhardtii was maintained under 12 h of light on TAP agar plates at 18° C. A loopful of cells was added to 50 mL of TAP Cu minus medium and the culture incubated with shaking at 200 rpm at 27° C. for 24 h. The culture (10 to 20 mL aliquot) was centrifuged in a bench centrifuge at 2000 rpm for 2 min. The resulting cell pellet was resuspended in 5 mL sterile milli Q water (which had been treated with Chelex 100 resin using 0.5 g resin per liter of water by stirring at room temperature for 1 h), and recentrifuged. The cells were resuspended in TAP Cu minus medium, and the suspension adjusted to 2×10^5 spores per mL. Microtiter plates containing compounds as described above were inoculated with 100 μL of this cell suspension and the plates incubated at 27° C. for 48 h before assessing algal growth by measuring light scattering in a NepheloStar plate-reader. Growth inhibition was determined by comparing growth in the presence of test compound with growth in control wells lacking test compound. Hydrazones and their isolated metal complexes were compared with respect to their in vitro activity toward C. reinhardtii and the cyanobacterium (blue-green alga) Synechocystis sp. strain 6803. Metal complexes of hydrazones were prepared by precipitation from ethanol with various metal salts at 1:1, 2:1 or 3:1 molar ratios, as described in general by Ainscough, Brodie, Dobbs, Ranford, and Waters (Inorganica Chimica Acta 1998, 267, 27-38, which is expressly incorporated by reference herein). In vitro assays against C. reinhardtii were conducted as described in Example 10 using TAP Cu minus medium. Growth inhibition was determined by comparing growth in the presence of test compound with growth in control wells lacking test compound. Results for growth inhibition of C. reinhardtii by hydrazones and corresponding isolated metal complexes (each at 1 μg/mL) are shown in Table 6.

As for `C/C(=N\NC(=O)c1ccc(C)cc1)c1cc(Cl)cc(Cl)c1O` [Compound 26], in the experiment with C. reinhardtii CC-1928, the inhibition of growth at 1 µg/mL came out at 5% and the “% Inhn. Plus Copper Observed” value was 94%.

In the case of `O=C(N/N=C/c1cc(Cl)cc(Cl)c1O)c1ccccc1.O=C(N/N=C/c1cc(Cl)cc(Cl)c1O)c1ccccc1.[Cl-].[Cl-].[Cu+2]` [Compound 76], in the experiment with C. reinhardtii, the “Complex % Inhn.” value is reported as 75%.

Consider `C/C(=N\NC(=O)c1ccc(Cl)cc1)c1cc(Cl)cc(Cl)c1O` [Compound 12], for which, in the experiment with C. reinhardtii CC-1928, the inhibition of growth at 1 µg/mL was 4% and the “% Inhn. Plus Copper Observed” value came to 96%. The inhibition of growth at 1 µg/mL in the experiment on C. reinhardtii is 4%.

Turning to `O=C(N/N=C/c1cc(Cl)cc(Cl)c1O)c1ccccc1O` [Compound 7], in the experiment on C. reinhardtii CC-1928, the inhibition of growth at 1 µg/mL was determined as 29% and the “% Inhn. Plus Copper Observed” value worked out at 94%. Besides, the inhibition of growth at 1 µg/mL in the experiment with C. reinhardtii came to 29%.

Consider `O=C(N/N=C/c1cc(Cl)cc(Cl)c1O)c1ccccc1.O=C(N/N=C/c1cc(Cl)cc(Cl)c1O)c1ccccc1.[Cl-].[Cl-].[Mn+2]` [Compound 77], for which, in the experiment on C. reinhardtii, the “Complex % Inhn.” value is given as −1%.

For `O=C(N/N=C/c1cc(Cl)cc(Cl)c1O)c1ccccc1` [Compound 1], in the experiment on C. reinhardtii CC-1928, the inhibition of growth at 1 µg/mL came to 16% and the “% Inhn. Plus Copper Observed” value turned out to be 96%. Further, the inhibition of growth at 1 µg/mL in the experiment with C. reinhardtii is 16%.

In the case of `[Cl][Cu][Cl]` [CuCl2, Copper chloride, reference compound], the “% Inhn. by copper chloride alone” value in the experiment on C. reinhardtii CC-1928 is on record as −11.7 ± 6.0%; with C. reinhardtii CC-1928 (listed as Copper chloride) it was “slight enhancement of growth”.

Regarding `O=C(N/N=C/c1ccc(Cl)c(Cl)c1O)c1ccccc1` [Compound 21], the inhibition of growth at 1 µg/mL in the experiment with C. reinhardtii CC-1928 and in the experiment with C. reinhardtii was 6% in each case. Also, the “% Inhn. Plus Copper Observed” value with C. reinhardtii CC-1928 is 94%.

Regarding `O=C(N/N=C/c1cc(C(F)(F)F)cc(C(F)(F)F)c1O)c1ccc(Cl)cc1` [Compound 32], the inhibition of growth at 1 µg/mL in the experiment with C. reinhardtii CC-1928 and in the experiment on C. reinhardtii was 21% throughout. Moreover, the “% Inhn. Plus Copper Observed” value in the experiment on C. reinhardtii CC-1928 is recorded as 97%.

For `O=C(N/N=C/c1cc(Cl)cc(Br)c1O)c1ccc(Cl)cc1` [Compound 15], in the experiment on C. reinhardtii CC-1928, the inhibition of growth at 1 µg/mL stood at 11% and the “% Inhn. Plus Copper Observed” value is listed as 97%. Moreover, the inhibition of growth at 1 µg/mL in the experiment on C. reinhardtii was 11%.

In the case of `O=C(N/N=C/c1c(Cl)ccc(Cl)c1O)c1ccc(Cl)cc1` [Compound 45], in the experiment on C. reinhardtii CC-1928, the inhibition of growth at 1 µg/mL turned out to be 9% and the “% Inhn. Plus Copper Observed” value was found to be 96%. For the same molecule, in the experiment with C. reinhardtii, the inhibition of growth at 1 µg/mL was 9%.

As for `O=C(N/N=C/c1cc(Cl)cc(Cl)c1O)c1ccccc1.[Cl-].[Cl-].[Cu+2]` [Compound 75], the “Complex % Inhn.” value in the experiment on C. reinhardtii is given as 95%.

With `CC(=O)[O-].CC(=O)[O-].O=C(N/N=C/c1cc(Cl)cc(Cl)c1O)c1ccccc1.[Cu+2]` [Compound 72], the “Complex % Inhn.” value in the experiment with C. reinhardtii is 96%.

For `O=C(N/N=C/c1cc(Cl)cc(Br)c1O)c1ccccc1O` [Compound 18], the inhibition of growth at 1 µg/mL in the experiment on C. reinhardtii CC-1928 and with C. reinhardtii was 13% throughout. The “% Inhn. Plus Copper Observed” value in the experiment on C. reinhardtii CC-1928 was determined as 95%.

For the molecule `C/C(=N\NC(=O)c1ccccc1)c1cc(Cl)cc(Cl)c1O` [Compound 6], in the experiment with C. reinhardtii CC-1928, the inhibition of growth at 1 µg/mL was 13% and the “% Inhn. Plus Copper Observed” value came to 98%. Also, in the experiment on C. reinhardtii, the inhibition of growth at 1 µg/mL was determined as 13%.

For `O=C(N/N=C/c1cc(Cl)cc(Br)c1O)c1ccccc1` [Compound 14], in the experiment with C. reinhardtii CC-1928, the inhibition of growth at 1 µg/mL is 6% and the “% Inhn. Plus Copper Observed” value is given as 97%. The inhibition of growth at 1 µg/mL with C. reinhardtii is 6%.

As to `O=C(NN=Cc1cc(Cl)cc(Cl)c1O)c1ccccc1.O=C(NN=Cc1cc(Cl)cc(Cl)c1O)c1ccccc1.[Cl-].[Cl-].[Zn+2]` [Compound 78], in the experiment on C. reinhardtii, the “Complex % Inhn.” value is recorded as −5%.

Take `O=C(N/N=C/c1cc(Cl)cc(Cl)c1O)c1ccccc1.O=C(N/N=C/c1cc(Cl)cc(Cl)c1O)c1ccccc1.O=S(=O)([O-])[O-].[Cu+2]` [Compound 74]: the “Complex % Inhn.” value with C. reinhardtii is reported as 96%.

`O=C(N/N=C/c1cc(Cl)cc(C(F)(F)F)c1O)c1ccccc1` [Compound 27]: in the experiment on C. reinhardtii CC-1928, the inhibition of growth at 1 µg/mL is 30% and the “% Inhn. Plus Copper Observed” value stood at 96%. In the experiment on C. reinhardtii, the inhibition of growth at 1 µg/mL was 30%.

For `O=C(N/N=C/c1cccc(Cl)c1O)c1ccc(Cl)cc1` [Compound 52], in the experiment with C. reinhardtii CC-1928, the inhibition of growth at 1 µg/mL was -4% and the “% Inhn. Plus Copper Observed” value amounted to 88%. For the same molecule, the inhibition of growth at 1 µg/mL with C. reinhardtii was -4%.

Turning to `O=C(N/N=C/c1c(C(F)(F)F)ccc(Cl)c1O)c1ccc(Cl)cc1` [Compound 56], in the experiment on C. reinhardtii CC-1928, the inhibition of growth at 1 µg/mL was 11% and the “% Inhn. Plus Copper Observed” value is 97%. Also, in the experiment on C. reinhardtii, the inhibition of growth at 1 µg/mL worked out at 11%.

In the case of `CC(=O)[O-].CC(=O)[O-].O=C(N/N=C/c1cc(Cl)cc(Cl)c1O)c1ccccc1.O=C(N/N=C/c1cc(Cl)cc(Cl)c1O)c1ccccc1.[Cu+2]` [Compound 73], in the experiment with C. reinhardtii, the “Complex % Inhn.” value stood at 96%.

As to `C/C(=N\NC(=O)c1cccc(C)c1)c1cc(Cl)cc(Cl)c1O` [Compound 25, 3-methyl-benzoic acid [1-(3,5-dichloro-2-hydroxyphenyl)-ethylidene]-hydrazide], in the experiment on C. reinhardtii CC-1928, the inhibition of growth at 1 µg/mL was 33% and the “% Inhn. Plus Copper Observed” value was found to be 95%. The inhibition of growth at 1 µg/mL in the experiment on C. reinhardtii turned out to be 33%.

Regarding `Cc1ccccc1C(=O)N/N=C/c1cc(Cl)cc(Cl)c1O` [Compound 63], the inhibition of growth at 1 µg/mL in the experiment with C. reinhardtii CC-1928 and in the experiment with C. reinhardtii was -18% each time. The “% Inhn. Plus Copper Observed” value in the experiment on C. reinhardtii CC-1928 amounted to 93%.

These data come from patent publication US8906829B2, “Synergistic algicidal compositions including hydrazone derivatives and copper” (Dow AgroSciences LLC, priority 2010, dated 2014).
